{
  "source": "paper PMC8398451",
  "about": "“Molecular Engineering of Curcumin, an Active Constituent of Curcuma longa L. (Turmeric) of the Family Zingiberaceae with Improved Antiproliferative Activity” (Plants, 2021)",
  "key": {"HCT-116": {"test_system": "HCT-116", "assay": "NCI antiproliferative SRB assay, Colon Cancer panel", "format": "cell-based, Human", "details": "one dose 10 µM"}, "HCT-15": {"test_system": "HCT-15", "assay": "NCI antiproliferative SRB assay, Colon Cancer panel", "format": "cell-based, Human", "details": "one dose 10 µM"}, "OVCAR-3": {"test_system": "OVCAR-3", "assay": "NCI antiproliferative SRB assay, Ovarian Cancer panel", "format": "cell-based, Human", "details": "one dose 10 µM"}, "[1]": {"test_system": "Ovarian Cancer cell line panel", "assay": "NCI antiproliferative assay, panel summary", "format": "cell-based, Human", "details": "10 µM"}, "[2]": {"test_system": "Non-Small Cell Lung Cancer cell line panel", "assay": "NCI antiproliferative assay, panel summary", "format": "cell-based, Human", "details": "10 µM"}, "MOLT-4": {"test_system": "MOLT-4", "assay": "NCI antiproliferative SRB assay, Leukemia panel", "format": "cell-based, Human", "details": "one dose 10 µM"}, "COLO 205": {"test_system": "COLO 205", "assay": "NCI antiproliferative SRB assay, Colon Cancer panel", "format": "cell-based, Human", "details": "one dose 10 µM"}, "SK-MEL-5": {"test_system": "SK-MEL-5", "assay": "NCI antiproliferative SRB assay, Melanoma panel", "format": "cell-based, Human", "details": "one dose 10 µM"}, "Melanoma cell line panel": {"test_system": "Melanoma cell line panel", "assay": "NCI antiproliferative assay, panel summary", "format": "cell-based, Human", "details": "10 µM"}, "UO-31": {"test_system": "UO-31", "assay": "NCI antiproliferative SRB assay, Renal Cancer panel", "format": "cell-based, Human", "details": "one dose 10 µM"}, "[3]": {"test_system": "Prostate Cancer cell line panel", "assay": "NCI antiproliferative assay, panel summary", "format": "cell-based, Human", "details": "10 µM"}, "60 NCI cancer cell lines": {"test_system": "60 NCI cancer cell lines", "assay": "NCI antiproliferative assay, summary over all lines", "format": "cell-based", "details": "mean over cell lines; one dose 10 µM"}, "IGROV1": {"test_system": "IGROV1", "assay": "NCI antiproliferative SRB assay, Ovarian Cancer panel", "format": "cell-based, Human", "details": "one dose 10 µM"}, "HL-60(TB)": {"test_system": "HL-60(TB)", "assay": "cells", "format": "cell-based", "details": "one dose 10 µM"}, "MDA-MB-468": {"test_system": "MDA-MB-468", "assay": "NCI antiproliferative SRB assay, Breast Cancer panel", "format": "cell-based, Human", "details": "MDA-MB-468; one dose 10 µM", "method": "The antiproliferative activity of tested compounds was done against five dozen (60) cancer cell lines derived from nine different panels. All of the compounds were evaluated for antiproliferative activity in a single dose at 10 µM. Growth percent (GP) and percent growth inhibition (% GI) were used to calculate antiproliferative activity. […] The antiproliferative results of five-dose assay were calculated as three dose related parameters like, 50% growth inhibition (GI50), 50% lethal concentration (LC50), and total growth inhibition TGI [43, 44, 45, 46, 47].\nHuman tumor cell lines were grown in RPMI 1640 medium containing 5% fetal bovine serum and 2 mM L-glutamine. For a typical screening experiment, cells were inoculated into 96-well microtiter plates in 100 µL at plating densities ranging from 5000 to 40,000 cells/well, depending on the doubling time of individual cell lines. Two plates of each cell line were fixed in situ with trichloroacetic acid (TCA) after 24 h to represent a cell population measurement for each cell line at the time of drug addition (Ti). The experimental drugs were frozen after being solubilized in dimethyl sulfoxide at 400-fold the desired final maximum test concentration. An aliquot of frozen concentrate was thawed and diluted to twice the desired final maximum test concentration with medium containing 50 µg/mL gentamicin at the time of drug addition. Additional four, 10-fold, or ½ log serial dilutions serial dilutions were performed to provide a total of five drug concentrations plus the control. Aliquots of 100 µL of these different drug dilutions were added to the appropriate microtiter wells already containing 100 µL of medium, resulting in the required final drug concentrations. Following drug addition, the plates are incubated for an additional 48 h at 37 °C, 5% CO2, 95% air, and 100% relative humidity. For adherent cells, the assay is terminated by the addition of cold TCA. Cells are fixed in situ by the gentle addition of 50 µL of cold 50% (w/v) TCA (final concentration, 10% TCA) and incubated for 60 min at 4 °C. The supernatant is discarded, and the plates are washed five times with tap water and air dried. Sulforhodamine B (SRB) solution (100 µL) at 0.4% (w/v) in 1% acetic acid was added to each well, and plates were incubated for 10 min at room temperature. After staining, unbound dye was removed by washing five times with 1% acetic acid and the plates were air dried. Bound stain was subsequently solubilized with 10 mM trizma base, and the absorbance was read on an automated plate reader at a wavelength of 515 nm. For suspension cells, the methodology was the same except that the assay was terminated by fixing settled cells at the bottom of the wells by gently adding 50 µL of 80% TCA (final concentration, 16% TCA). […]\nAntiproliferative activity\nThe anticancer screening was carried ou t as per the NCI US protocol. Using the seven absorbance measurements (time zero, (Ti), control growth, (C), and test growth in the presence of drug at the five concentration levels (Tf)), the percentage growth was calculated at each of the drug concentrations level as [( Tf−Ti × 100 for concentrations for which Tf ≥ Ti, and Tf−Ti × 100 for […]\nconcentrations for which Tf < Ti.\nThree-dose response parameters (GI50, TGI, and LC50) were calculated for each of the experimental agents. Growth inhibition of 50% (GI50) was calculated from 100 × Tf−Ti = 50, , which was […]\nthe drug concentration resulting in a 50% reduction in the net protein increase (as measured by sulforhodamine B, SRB staining) in control cells during the drug incubation. The total growth inhibition (TGI) was calculated from Tf = Ti, which was the drug concentration resulting in total growth inhibition and signified the cytostatic effect. The LC50 was calculated from 100 × Tf−Ti = −50, , indicating a net loss […]\nof cells following treatment which indicated the concentration of drug resulting in a 50% reduction in the […]"}},
  "data": [
    {"smiles": "COc1ccc(/C=C/c2cc(/C=C/c3ccc(OC)c(O)c3)n(-c3cccc(Cl)c3)c(=S)n2)cc1O", "note": "[3a]", "values": [
      {"measurement": "%GI", "setting": "HCT-116", "value": 38.12, "unit": "%"},
      {"measurement": "GP (growth percent)", "setting": "HCT-116", "value": 61.88},
      {"measurement": "%GI", "setting": "HCT-15", "value": 6.07, "unit": "%"},
      {"measurement": "GP (growth percent)", "setting": "HCT-15", "value": 93.93},
      {"measurement": "%GI", "setting": "OVCAR-3", "value": 8.70, "unit": "%"},
      {"measurement": "GP (growth percent)", "setting": "OVCAR-3", "value": 91.30},
      {"measurement": "Mean % GI", "setting": "[1]", "value": 7.04, "unit": "%"},
      {"measurement": "Mean % GI", "setting": "[2]", "value": 17.22, "unit": "%"},
      {"measurement": "%GI", "setting": "MOLT-4", "value": 53.78, "unit": "%"},
      {"measurement": "GP (growth percent)", "setting": "MOLT-4", "value": 46.22},
      {"measurement": "%GI", "setting": "COLO 205", "value": "−7.08", "unit": "%"},
      {"measurement": "GP (growth percent)", "setting": "COLO 205", "value": 107.08},
      {"measurement": "%GI", "setting": "SK-MEL-5", "value": 21.01, "unit": "%"},
      {"measurement": "GP (growth percent)", "setting": "SK-MEL-5", "value": 78.99},
      {"measurement": "Mean % GI", "setting": "Melanoma cell line panel", "value": 17.21, "unit": "%"},
      {"measurement": "%GI", "setting": "UO-31", "value": 28.74, "unit": "%"},
      {"measurement": "GP (growth percent)", "setting": "UO-31", "value": 71.26},
      {"measurement": "Mean % GI", "setting": "[3]", "value": 14.98, "unit": "%"},
      {"measurement": "Mean % GI", "setting": "60 NCI cancer cell lines", "value": 17.68, "unit": "%"},
      {"measurement": "Mean GP", "setting": "60 NCI cancer cell lines", "value": 82.32},
      {"measurement": "%GI", "setting": "IGROV1", "value": 4.74, "unit": "%"},
      {"measurement": "GP (growth percent)", "setting": "IGROV1", "value": 95.26},
      {"measurement": "%GI", "setting": "HL-60(TB)", "value": 16.52, "unit": "%"},
      {"measurement": "GP (growth percent)", "setting": "HL-60(TB)", "value": 83.48},
      {"measurement": "%GI", "setting": "MDA-MB-468", "value": 16.19, "unit": "%"},
      {"measurement": "GP (growth percent)", "setting": "MDA-MB-468", "value": 83.81}
    ]}
  ]
}
